The subject of data set [1] is HT-29 human colorectal cancer cells. Briefly: MTT cytotoxicity assay. As to conditions: 48 h incubation. Type of data set: cell-based. Here is the method: Human CRC (HT-29) was purchased from the European Collection of Authenticated Cell Cultures. It was thawed and propagated in […] flasks at 37 °C in a 5% CO2 humidified chamber (HeraCELL 150) in Dulbecco's modified Eagle's medium (DMEM; Sigma D-5648, São Paulo, Brazil) supplemented with 100 mM sodium pyruvate (Gibco, Thermo Fisher Scientific, Waltham, Massachusetts, USA), 10% fetal bovine serum (FBS) (Gibco, Fisher Scientific, Waltham, Massachusetts, USA), and 1% antibiotics (100 U/mL penicillin and 10 mg/mL streptomycin, Gibco). Cells were detached using 0.25% trypsin-EDTA (Gibco, Fisher Scientific, Waltham, Massachusetts, USA) at 37 °C for 3 min. DMEM plus 10% FBS was used to block the trypsin. The cell pellet was transferred to a new 75 cm^3 flask containing 10 mL DMEM. The culture medium was changed every 24 h. Cell viability was evaluated in the Neubauer chamber using Trypan Blue.
To check the viability, the culture fluid is removed and 5 × 10^5cells per well were treated with melittin (0.0625, 0.125, 0.25, 0.5, 1.0, 2.0, 35 and 70 µM). After 48 h of incubation, MTT (3-(4,5-dimethylthiazol-2-yl)-2,5-diphenyltetrazolium bromide) 0.5 mg/mL was added to each well and incubated at 37 °C for 4 h to determine the number of living cells. […] Then, the optical density was detected by a microplate reader at a wavelength of 540 nm (EPOCH, BioTech Instrument Inc., Winooski, VT, USA). […]
Background: Formazan colour is commonly taken as a measure of viable cells.

The conditions of data set [2]: cited from earlier work. The text has this:
The peptide inhibited approximately 50% of the growth of metastasis. […] In a recent paper melittin could be detected in patients up to 30 days after envenomation, clearly indicating bioaccumulation corroborating the effects of the single-dose treatment. Besides, melittin has the ability to improves sy ...

Data set [3] deals with HT-29 CRC bone metastasis xenograft. Briefly: Histopathological analysis of the metastasis. Type of data set: in vivo, Balb/c-nu mice. As to conditions: H&E. An excerpt: After the anesthetic procedure by the parenteral anesthetic drug overdose, the animals were euthanized. The tumor was then resected entirely for anatomopathological analysis. The external surface of the sample was inspected. The opened and cleaned specimens were immersed in formalin overnight for fixation and embedded in paraffin. Metastasis was sliced to assess bone invasion. Tumor 3 µm sections were stained with hematoxylin-eosin and subjected to optical microscopy. Metastasis diagnosis and histological features were determined.

Data set [4] has the same test system. As to the kind of experiment: Bone metastasis in colorectal cancer mouse model, metastasis volume after intrametastatic injection. The format is in vivo, Balb/c-nu mice. Here is the method:
Six-week-old Balb/c-nu male mice (n = 9), weighing 23,76 ± 3,11 g, from Charles River Laboratories International Inc. (Wilmington, USA) were housed in individual ventilated racks. All animals were kept under controlled light conditions (12 h light/12 dark cycles), temperature (23 ± 1 °C), humidity (40%-60%), water, and feed ad libitum.
The procedures were performed in a laminar flow with rigorous asepsis and antisepsis techniques. On day 0, to perform the cell inoculation, mice were anesthetized with xylazine hydrochloride 2% plus ketamine, diluted 1:2 (0.3 mL/20 g), and administered via intramuscular injection. Briefly, cells were suspended in 40 μL of saline. A percutaneous 45° puncture was performed. Bone scarification was performed with the bevel of the hypodermic needle carefully to avoid transfixing the skullcap. Then, without needle exchange, cells (4 × 10^6 cells) were injected over the periosteal in the parietal region using a 1 mL syringe and 36G caliber hypodermic needle.
After xenograft, the animals were monitored daily. Metastasis was verified and measured every day. In case of signs, the animal is euthanized immediately. Metal calipers checked the volume. The growth curves were determined using the formula: Volume = L × S^2/2, where "S" is the smallest diameter measured and "L" is the largest diameter measured.
After the tumor reached 100 mm^3 (by the 19th day after xenograft), the animals were randomized into groups:
After anesthesia, 1,5 mg/kg single dose of melittin was injected in the metastasis with a sterile syringe, as deep as possible, without trespassing the tumor. Without removing the needle, 50 µL of solution was applied slowly for a homogenous distribution into the metastasis, equally distributed (10 µL) in the center and cardinal points. After the administration, the needle remained in the metastasis for 20 seconds before being slowly removed to avoid extravasation.

A short description of data set [5]: Animal follow up: signs of toxicity, body weight, organ histopathology. Type of data set: in vivo, Balb/c-nu mice. As to the method: Signals of suffering and toxicity were carefully observed daily. The following general behaviors were observed: low activity, appetite loss, personality changes, immobility, social isolation, urine and feces consistency changes, lack of personal hygiene, and self-mutilation. Specific to mice, weight loss, dehydration, piloerection, and screams when touched were evaluated.
Moreover, immediately after euthanized, liver, kidneys, and heart were removed from the animals for histopathological analysis, which was conducted with the same method described above.

Data set [6] is described as follows: Mass spectrometry characterisation (aggregation state). The settings on record: LC-MS, Q-Exactive Plus, C18, before application in the animals. The format is physicochemical. The text has this:
The purity and identity were confirmed by mass spectrometry using a Q-Exactive Plus (Thermo Fisher Scientific, Waltham, Massachusetts, USA). The peptide was inserted into a C18 column (EASY-Spray™ LC Columns, Thermo Fisher Scientific, Waltham, Massachusetts, USA) coupled to a liquid chromatography binary system (EASY-nLC 1,200, Thermo Scientific, Waltham, Massachusetts, USA) and eluted with a gradient of 5%-80% of solvent A (water containing 0.1% formic acid) and B (90% acetonitrile containing 0.1% formic acid) with a constant flow of 100 nL/min. The eluted was automatically inserted in the mass spectrometer, operating in positive mode, in MS mode of a full scan of 300-1500 m/z.

For `CC[C@H](C)[C@H](NC(=O)CN)C(=O)NCC(=O)N[C@@H](C)C(=O)N[C@H](C(=O)N[C@@H](CC(C)C)C(=O)N[C@@H](CCCCN)C(=O)N[C@H](C(=O)N[C@@H](CC(C)C)C(=O)N[C@H](C(=O)N[C@H](C(=O)NCC(=O)N[C@@H](CC(C)C)C(=O)N1CCC[C@H]1C(=O)N[C@@H](C)C(=O)N[C@@H](CC(C)C)C(=O)N[C@H](C(=O)N[C@@H](CO)C(=O)N[C@@H](Cc1c[nH]c2ccccc12)C(=O)N[C@H](C(=O)N[C@@H](CCCCN)C(=O)N[C@@H](CCCNC(=N)N)C(=O)N[C@@H](CCCCN)C(=O)N[C@@H](CCCNC(=N)N)C(=O)N[C@@H](CCC(N)=O)C(=O)N[C@@H](CCC(N)=O)C(N)=O)[C@@H](C)CC)[C@@H](C)CC)[C@@H](C)O)[C@@H](C)O)C(C)C)C(C)C` [melittin], in data set [1] (2 µM, mean of triplicates), the “maximum inhibition of HT-29 proliferation” value worked out at 80%. In addition, the “decrease of the initial HT-29 cell number” value in data set [1] (0.0625-70 µM, triplicates) was “about 20%”. Moreover, the “time melittin is detectable in patients after envenomation” value in data set [2] is “up to 30 days”. The “microscopy of treated metastasis, mitosis rate” value in data set [3] (melittin-treated animals n = 6) is recorded as “low mitosis rate”. Also, the “microscopy of treated metastasis, tumor cells” value in data set [3] (last experimental day (day 27), n = 6) is “necrosis and absence of tumor cells”. In addition, in data set [4] (1,5 mg/kg single intrametastatic dose on day 19, 2 days after the treatment, n = 6 vs untreated n = 3, p < 0.001), the “inhibition of growing metastasis” value is on record as “approximately 50%”. The metastasis reduction in data set [4] (after a single intrametastatic dose, 1,5 mg/kg) is on record as 53%. Besides, the metastasis regrowth entry in data set [4] (seven days after single-dose injection) is recorded as “metastases started growing again”. Besides, the “death or severe toxicity signs” value in data set [5] (after intrametastatic treatment, 1,5 mg/kg single dose) is on record as “no death or severe toxicity signs”. Moreover, the signs of envenomation entry in data set [5] (daily observation after 1,5 mg/kg single intrametastatic dose) is listed as “did not show signs of envenomation”. The “local reaction at injection site” value in data set [5] (day 20, the day after intrametastatic injection of 1,5 mg/kg) is “local inflammation”. Besides, in data set [5] (day 27, seven days after single dose, H&E), the “histopathological analysis of liver, kidney and heart” value was “no signals of toxicity”. Also, the “body weight versus untreated animals” value in data set [5] (three days after administration, p < 0.01, n = 6 vs n = 3) is reported as “greater weight loss than those untreated”. In addition, the “aggregation state by mass spectrometry” value in data set [6] was “monomeric structure without aggregation”.

(Values after article PMC8922758, “A new therapeutic approach for bone metastasis in colorectal cancer: intratumoral melittin” (The Journal of Venomous Animals and Toxins Including …, 2022).)
